This passage reports EC50 results from PMC6212834 (Nucleic Acids Research, 2018).

The experiment concerns the target T1, Csx1 (SisCsx1, SiCsx1) (Saccharolobus islandicus, UniProt F0NE21).
T1 sequence (F0NE21 1-454): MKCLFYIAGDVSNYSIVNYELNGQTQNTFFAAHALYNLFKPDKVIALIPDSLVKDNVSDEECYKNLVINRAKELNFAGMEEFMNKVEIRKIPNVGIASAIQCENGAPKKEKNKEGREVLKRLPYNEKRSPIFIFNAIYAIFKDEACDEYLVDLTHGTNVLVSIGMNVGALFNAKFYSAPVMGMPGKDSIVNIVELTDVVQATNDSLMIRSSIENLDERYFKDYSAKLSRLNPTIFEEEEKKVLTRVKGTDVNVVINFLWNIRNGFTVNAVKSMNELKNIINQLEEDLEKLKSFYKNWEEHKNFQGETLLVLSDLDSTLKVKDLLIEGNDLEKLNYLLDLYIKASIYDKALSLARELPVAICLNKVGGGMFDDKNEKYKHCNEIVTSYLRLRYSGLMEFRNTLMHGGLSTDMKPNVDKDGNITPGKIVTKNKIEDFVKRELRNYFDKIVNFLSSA
In words: RNA. It counts as biochemical.

Molecules are shown by their SMILES.

`Nc1ncnc2c1ncn2[C@@H]1O[C@@H]2COP(=O)(O)O[C@H]3[C@@H](O)[C@H](n4cnc5c(N)ncnc54)O[C@@H]3COP(=O)(O)O[C@H]3[C@@H](O)[C@H](n4cnc5c(N)ncnc54)O[C@@H]3COP(=O)(O)O[C@H]3[C@@H](O)[C@H](n4cnc5c(N)ncnc54)O[C@@H]3COP(=O)(O)O[C@H]2[C@H]1O` [c-A4] registered an EC50 of 7.4 nM.
